These results are taken from patent publication US10051861B2, “N-arylamidine-substituted trifluoroethyl sulfide derivatives as acaricides and insecticides” (BAYER CROPSCIENCE AG, priority 2011, dated 2018).

SMILES strings stand for the structures.

One test has as its system greenhouse red spider mite (Tetranychus urticae). The experiment in a line: Tetranychus urticae spray test, OP-resistant (TETRUR), bean leaf disks. The class given is in vivo. The conditions noted are these: Tetranychus urticae, foliar, 144 h, application rate 500 g/ha, after 6 days; read-out: efficacy (spider mites killed). As for the experimental part:
After 6 days, the effect in % is determined.
Take `Cc1cc(F)c(/N=C(\N)c2cccnc2)cc1SCC(F)(F)F` [Ia-40]: the pest or weed control at 500 g/ha worked out at 100%.

As for `Cc1cc(F)c(/N=C(\NCC(F)F)C2CC2)cc1[S+]([O-])CC(F)(F)F` (stereo not drawn) [Ib-132], the pest or weed control at 500 g/ha is 100%.

Consider `N#CC1(/C(N)=N/c2cc(SCC(F)(F)F)c(Cl)cc2Cl)CC1` [Ia-219], for which the pest or weed control at 500 g/ha was found to be 90%.

`Cc1cc(F)c(/N=C(\c2ccc(F)cc2)N(C)C)cc1SCC(F)(F)F` [Ia-128]: the pest or weed control at 500 g/ha came to 90%.

For `Cc1cc(F)c(N=C(N)c2ccccc2F)cc1SCC(F)(F)F` [Ia-133], the pest or weed control at 500 g/ha was 100%.

Regarding `NN/C(=N/c1cc(SCC(F)(F)F)c(Cl)cc1F)C(F)(F)F` [Ia-155], the pest or weed control at 500 g/ha was 90%.

For the molecule `CN/C(=N\c1cc(SCC(F)(F)F)c(C)cc1F)c1cnc(Cl)c(Cl)c1` [Ia-148], the pest or weed control at 500 g/ha turned out to be 100%.

In the case of `Cc1cc(F)c(/N=C(\c2cccc(C(F)(F)F)c2)N(C)C)cc1SCC(F)(F)F` [Ia-212], the pest or weed control at 500 g/ha came out at 90%.

Take `CN(C)/C(=N\c1cc([S+]([O-])CC(F)(F)F)c(Cl)cc1Cl)c1ccccc1` (stereo not drawn) [Ib-127]: the pest or weed control at 500 g/ha is 100%.

Consider `Cc1cc(F)c(/N=C(\N)c2ccncc2)cc1SCC(F)(F)F` [Ia-73], for which the pest or weed control at 500 g/ha was determined as 100%.

Take `Cc1cc(F)c(/N=C(/C2CC2)N(C)C)cc1SCC(F)(F)F` [Ia-93]: the pest or weed control at 500 g/ha was determined as 100%.

Consider `Cc1cc(F)c(/N=C(\c2ccc(C(F)(F)F)nc2)N(C)C)cc1SCC(F)(F)F` [Ia-160], for which the pest or weed control at 500 g/ha was determined as 90%.

With `CN/C(=N\c1cc(SCC(F)(F)F)c(C)cc1F)c1ccccn1` [Ia-72], the pest or weed control at 500 g/ha is 100%.

On to `CN/C(=N\c1cc(SCC(F)(F)F)c(Cl)cc1C)C(F)(F)F` [Ia-87], for which the pest or weed control at 500 g/ha is 100%.

`CCN(CC)/C(=N/c1cc([S+]([O-])CC(F)(F)F)c(C)cc1F)C(F)(F)F` (stereo not drawn) [Ib-34]: the pest or weed control at 500 g/ha worked out at 100%.

Regarding `Cc1cc(C)c(SCC(F)(F)F)cc1/N=C(\N)c1ccncc1` [Ia-95], the pest or weed control at 500 g/ha came out at 100%.

For `Cc1cc(C)c(SCC(F)(F)F)cc1/N=C(\N)c1ccccn1` [Ia-98], the pest or weed control at 500 g/ha came to 100%.

Consider `Cc1cc(F)c(/N=C(\N)c2ccc(C(F)(F)F)nc2)cc1SCC(F)(F)F` [Ia-86], for which the pest or weed control at 500 g/ha stood at 100%.

With `Cc1cc(F)c(/N=C(/c2ccccc2Cl)N(C)C)cc1SCC(F)(F)F` [Ia-84], the pest or weed control at 500 g/ha is 100%.

Consider `N/C(=N\c1cc(SCC(F)(F)F)c(Cl)cc1Cl)c1ccncc1` [Ia-172], for which the pest or weed control at 500 g/ha turned out to be 90%.

For `CN/C(=N\c1cc(SCC(F)(F)F)c(C)cc1C)c1ccc(Cl)cc1` [Ia-176], the pest or weed control at 500 g/ha is 90%.

In the case of `Cc1cc(F)c(/N=C(/NCc2ccccc2)C(F)(F)F)cc1[S+]([O-])CC(F)(F)F` (stereo not drawn) [Ib-74], the pest or weed control at 500 g/ha was found to be 90%.

Consider `CCN/C(=N\c1cc(SCC(F)(F)F)c(C)cc1C)c1cccnc1` [Ia-224], for which the pest or weed control at 500 g/ha stood at 100%.

As to `N/C(=N\c1cc(SCC(F)(F)F)c(Cl)cc1Cl)c1cccnc1` [Ia-141], the pest or weed control at 500 g/ha was determined as 100%.

For the molecule `Cc1ccc(/N=C(/N)C(F)(F)F)cc1SCC(F)(F)F` [Ia-213], the pest or weed control at 500 g/ha was found to be 100%.

With `Cc1cc(F)c(/N=C2\CCCCN2C)cc1[S+]([O-])CC(F)(F)F` (stereo not drawn) [Ib-52], the pest or weed control at 500 g/ha is 100%.

For `Cc1cc(F)c(/N=C(\N)C(F)(F)C(F)(F)Cl)cc1SCC(F)(F)F` [Ia-47], the pest or weed control at 500 g/ha is 100%.

For `Cc1cc(F)c(/N=C(\N)C2CCC2)cc1SCC(F)(F)F` [Ia-94], the pest or weed control at 500 g/ha turned out to be 100%.

In the case of `CN/C(=N/c1cc([S+]([O-])CC(F)(F)F)c(C)cc1F)c1cccc(C(F)(F)F)c1` (stereo not drawn) [Ib-113], the pest or weed control at 500 g/ha turned out to be 100%.

As for `Cc1cc(F)c(/N=C(\N)C2CC2(F)Cl)cc1SCC(F)(F)F` (stereo not drawn) [Ia-67], the pest or weed control at 500 g/ha was 100%.

Consider `Cc1cc(F)c(/N=C(\c2ccccc2C(F)(F)F)N(C)C)cc1SCC(F)(F)F` [Ia-245], for which the pest or weed control at 500 g/ha is 90%.

For `Cc1cc(F)c(/N=c2\sc(C)c(C)n2CC(F)(F)F)cc1SCC(F)(F)F` [Ia-138], the pest or weed control at 500 g/ha stood at 100%.

Regarding `Cc1cc(C)c(SCC(F)(F)F)cc1/N=C1\SCC(=O)N1C1CC1` [Ia-187], the pest or weed control at 500 g/ha is 100%.

For the molecule `CN/C(=N\c1cc([S+]([O-])CC(F)(F)F)c(Cl)cc1C)C(F)(F)F` (stereo not drawn) [Ib-90], the pest or weed control at 500 g/ha amounted to 100%.

Take `[O-][S+](CC(F)(F)F)c1cc(/N=C(\NC2CC2)c2ccc(Cl)nc2)c(Cl)cc1Cl` (stereo not drawn) [Ib-151]: the pest or weed control at 500 g/ha turned out to be 100%.

Take `O=C1CS/C(=N\c2ccc(Cl)c(SCC(F)(F)F)c2)N1CC(F)(F)F` [Ia-194]: the pest or weed control at 500 g/ha was 100%.

Consider `CN(C)/C(=N\c1cc([S+]([O-])CC(F)(F)F)c(Cl)cc1Cl)c1ccc(Cl)nc1` (stereo not drawn) [Ib-119], for which the pest or weed control at 500 g/ha is 100%.

With `FC(F)(F)CN/C(=N\c1cc(SCC(F)(F)F)c(Cl)cc1Cl)C1CCCC1` [Ia-254], the pest or weed control at 500 g/ha turned out to be 90%.

`Cc1cc(F)c(/N=C2\CCCN2C(C)C(F)(F)F)cc1[S+]([O-])CC(F)(F)F` (stereo not drawn) [Ib-169]: the pest or weed control at 500 g/ha is 100%.

In the case of `Cc1cc(F)c(/N=C(\NCC(F)(F)F)C2CCC2)cc1SCC(F)(F)F` [Ia-261], the pest or weed control at 500 g/ha came to 90%.

Turning to `Cc1cc(F)c(/N=C(/c2cccnc2)N2CCC(F)(F)CC2)cc1SCC(F)(F)F` [Ia-269], the pest or weed control at 500 g/ha is 90%.

Consider `Cc1cc(F)c(/N=C(\c2ccc(C(F)(F)F)nc2)N(C)C)cc1[S+]([O-])CC(F)(F)F` (stereo not drawn) [Ib-75], for which the pest or weed control at 500 g/ha was 100%.

Regarding `Cc1cc(F)c(/N=C(\N)c2ccncn2)cc1[S+]([O-])CC(F)(F)F` (stereo not drawn) [Ib-65], the pest or weed control at 500 g/ha was found to be 100%.

Regarding `Cc1cc(F)c(/N=C(/NC2CS(=O)(=O)C2)C(F)(F)F)cc1[S+]([O-])CC(F)(F)F` (stereo not drawn) [Ib-91], the pest or weed control at 500 g/ha was 90%.

Turning to `Cc1cc(F)c(/N=C(/NC2(C)CC2)C(F)(F)F)cc1[S+]([O-])CC(F)(F)F` (stereo not drawn) [Ib-36], the pest or weed control at 500 g/ha was found to be 100%.

Consider `Cc1cc(F)c(/N=C2\SCC(=O)N2CC(F)F)cc1SCC(F)(F)F` [Ia-188], for which the pest or weed control at 500 g/ha was 100%.

In the case of `Cc1cc(C)c([S+]([O-])CC(F)(F)F)cc1/N=C(\NC(C)C(F)(F)F)C1CC1` (stereo not drawn) [Ib-160], the pest or weed control at 500 g/ha was 100%.

With `Cc1cc(C)c(SCC(F)(F)F)cc1/N=C(\NCC(F)(F)F)C1CCC1` [Ia-267], the pest or weed control at 500 g/ha worked out at 90%.

As for `CN/C(=N\c1cc([S+]([O-])CC(F)(F)F)c(C)cc1F)c1cccnc1` (stereo not drawn) [Ib-28, N′-{2-Fluoro-4-methyl-5-[(2,2,2-trifluoroethyl)sulfinyl]phenyl}-N-methylpyridine-3-carboximidamide], the pest or weed control at 500 g/ha is 100%.

For `CN/C(=N/c1cc(SCC(F)(F)F)c(C)cc1F)c1ccc(F)cc1` [Ia-144], the pest or weed control at 500 g/ha was found to be 100%.

On to `CN/C(=N\c1cc(SCC(F)(F)F)c(C)cc1F)c1ccc(Cl)cc1` [Ia-60], for which the pest or weed control at 500 g/ha was determined as 100%.

Consider `Cc1cc(Cl)c(SCC(F)(F)F)cc1/N=C(\N)C1(Cl)CC1` [Ia-74], for which the pest or weed control at 500 g/ha was found to be 100%.

As to `CN(C)/C(=N/c1cc([S+]([O-])CC(F)(F)F)c(Br)cc1Br)C(F)(F)F` (stereo not drawn) [Ib-25], the pest or weed control at 500 g/ha stood at 100%.

Take `FC(F)(F)CN/C(=N\c1cc(SCC(F)(F)F)c(Cl)cc1Cl)C1CCC1` [Ia-259]: the pest or weed control at 500 g/ha was determined as 90%.

As to `Cc1cc(Cl)c(/N=C(\N)C(F)(F)F)cc1SCC(F)(F)F` [Ia-56], the pest or weed control at 500 g/ha came to 100%.

For `Cc1cc(C)c(SCC(F)(F)F)cc1/N=C(\N)c1ccc(Cl)nc1` [Ia-81], the pest or weed control at 500 g/ha came out at 100%.

As for `CN/C(=N\c1cc([S+]([O-])CC(F)(F)F)c(C)cc1F)c1cnc(Cl)c(Cl)c1` (stereo not drawn) [Ib-104], the pest or weed control at 500 g/ha was 90%.

As to `CN/C(=N/c1ccc(Cl)c(SCC(F)(F)F)c1)C(F)(F)F` [Ia-217], the pest or weed control at 500 g/ha worked out at 100%.

As to `FC(F)CN/C(=N\c1cc(SCC(F)(F)F)c(Cl)cc1Cl)C1CC1` [Ia-253], the pest or weed control at 500 g/ha is 90%.

On to `Cc1cc(C)c(SCC(F)(F)F)cc1/N=C(\N)C(F)(F)C(F)(F)Cl` [Ia-65], for which the pest or weed control at 500 g/ha was determined as 100%.

Turning to `CN/C(CC(F)(F)F)=N\c1cc(SCC(F)(F)F)c(C)cc1F` [Ia-233], the pest or weed control at 500 g/ha amounted to 100%.

In the case of `CN/C(=N\c1cc(SCC(F)(F)F)c(C)cc1F)c1ccccc1Cl` [Ia-69], the pest or weed control at 500 g/ha is 100%.

As to `Cc1cc(C)c([S+]([O-])CC(F)(F)F)cc1/N=C(/c1ccccc1Cl)N1CCOCC1` (stereo not drawn) [Ib-157], the pest or weed control at 500 g/ha was 90%.

On to `Cc1cc(F)c(/N=C(\N)C2CCCC2)cc1SCC(F)(F)F` [Ia-161], for which the pest or weed control at 500 g/ha stood at 100%.

For `N/C(=N\c1cc(SCC(F)(F)F)c(Cl)cc1Cl)c1ccc(Cl)cc1` [Ia-266], the pest or weed control at 500 g/ha was 90%.

Consider `CN/C(=N\c1cc(SCC(F)(F)F)c(C)cc1F)c1cccnc1` [Ia-61, N′-{2-Fluoro-4-methyl-5-[(2,2,2-trifluoroethyl)sulfanyl]phenyl}-N-methylpyridine-3-carboximidamide], for which the pest or weed control at 500 g/ha was 100%.

With `CN/C(=N/c1cc(SCC(F)(F)F)c(C)cc1F)c1cccc(F)c1` [Ia-126], the pest or weed control at 500 g/ha came to 100%.

The same test, now with this note: Tetranychus urticae, foliar, 144 h, read-out: efficacy (spider mites killed).
Turning to `Cc1cc(F)c(/N=C2/NCCS2)cc1SCC(F)(F)F` [Ia-238, 2-Fluoro-4-methyl-N-[1,3-thiazolidin-2-ylidene]-5-[(2,2,2-trifluoroethyl)sulfanyl]aniline], the pest or weed control at 500 g/ha stood at 100%.

Staying with this test, now noted: application rate 500 g/ha, after 6 days.
As for `CNC(=Nc1cc(SCC(F)(F)F)c(C)cc1Cl)C(F)(F)F` [Ia-20], the “efficacy (spider mites killed)” value is listed as 100%.

`CN/C(=N\c1cc([S+]([O-])CC(F)(F)F)c(C)cc1F)c1cccnc1` (stereo not drawn) [Ib-93]: the “efficacy (spider mites killed)” value was 100%.

On to `Cc1cc(F)c(N=C(NS(=O)(=O)C(F)(F)F)C(F)(F)F)cc1SCC(F)(F)F` [Ia-16], for which the “efficacy (spider mites killed)” value was 100%.

In the case of `Cc1cc(F)c(N=C(N)C(F)(F)C(F)(F)C(F)(F)C(F)(F)C(F)(F)C(F)(F)C(F)(F)F)cc1SCC(F)(F)F` [Ia-06], the “efficacy (spider mites killed)” value came to 100%.
